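Protocol summary: plate cells (96-well), add compound at 5 concentrations, incubate 48 h, interpolate endpoints linearly. GI50 marks 50% less growth.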 The source made the active and inactive calls. Cut-off read from the data, not from the text of the source: active = GI50 up to about 1.1 µM and inactive = higher.
Assays:
Test in all cases: growth of human tumour cells (NCI), 48 h
786-0 = system: 786-0
HCT-116 = system: HCT-116
HOP-62 = system: HOP-62
IGROV-1 = system: IGROV-1
K562 = system: K562
NCI-H226 = system: NCI-H226
NCI-H23 = system: NCI-H23
NCI-H522 = system: NCI-H522
OVCAR-3 = system: OVCAR-3
RPMI-8226 = system: RPMI-8226
SF-268 = system: SF-268
SF-295 = system: SF-295
SK-MEL-28 = system: SK-MEL-28
SK-MEL-2 = system: SK-MEL-2
SNB-19 = system: SNB-19
UACC-62 = system: UACC-62
SNB-75 = system: SNB-75
CAKI-1 = system: CAKI-1

Measured: GI50

C[s+]1c2ccccc2c2ccccc21
inactive: 786-0 > 100 µM | HCT-116 > 100 µM | HOP-62 > 100 µM | IGROV-1 > 100 µM | K562 > 100 µM | NCI-H226 58.5 µM | NCI-H23 > 10 µM | NCI-H522 > 100 µM | OVCAR-3 > 100 µM | RPMI-8226 > 100 µM | SF-268 > 100 µM | SF-295 > 100 µM | SK-MEL-28 > 100 µM | SK-MEL-2 > 100 µM | SNB-19 74.1 µM | UACC-62 > 100 µM

CC(=O)O[C@H]1/C(=C/c2ccc(N(C)C)cc2)C[C@H]2[C@@H]3CC=C4C[C@@H](N5CCCC5)CC[C@]4(C)[C@H]3CC[C@]12C
inactive: 786-0 > 100 µM | HCT-116 > 100 µM | HOP-62 > 100 µM | IGROV-1 > 100 µM | K562 > 100 µM | NCI-H226 > 100 µM | NCI-H23 > 100 µM | OVCAR-3 > 100 µM | RPMI-8226 > 100 µM | SF-268 > 100 µM | SF-295 > 100 µM | SK-MEL-28 > 100 µM | SK-MEL-2 > 100 µM | SNB-19 > 100 µM | SNB-75 > 100 µM | UACC-62 > 100 µM

COC(=O)/C(C#N)=C1\NC(=O)c2ccccc21
inactive: 786-0 > 100 µM | HCT-116 > 100 µM | HOP-62 > 100 µM | IGROV-1 > 100 µM | K562 > 100 µM | NCI-H226 > 100 µM | NCI-H23 > 100 µM | NCI-H522 > 100 µM | OVCAR-3 > 100 µM | RPMI-8226 > 100 µM | SF-268 > 100 µM | SF-295 > 100 µM | SK-MEL-28 > 100 µM | SNB-19 > 100 µM | SNB-75 2.4 µM | UACC-62 > 100 µM

CC(O)CNC(=O)C(C)Oc1ccc(OCC2CCCCC2)cc1 (configuration not stated)
inactive: 786-0 > 100 µM | HCT-116 > 100 µM | IGROV-1 > 100 µM | K562 > 100 µM | NCI-H226 88.5 µM | NCI-H522 > 100 µM | OVCAR-3 > 100 µM | SF-268 > 100 µM | SF-295 84.1 µM | SK-MEL-28 > 100 µM | SK-MEL-2 > 100 µM | SNB-19 > 100 µM | SNB-75 > 100 µM | UACC-62 > 100 µM

CC[C@H](C)N(CCN)C(=O)c1cc2ccccc2c(-c2ccccc2Cl)n1
inactive: 786-0 4.49 µM | CAKI-1 5.57 µM | HCT-116 2.85 µM | HOP-62 17.5 µM | IGROV-1 8.09 µM | K562 3.05 µM | NCI-H226 15 µM | NCI-H23 12.8 µM | NCI-H522 17.5 µM | OVCAR-3 16.6 µM | RPMI-8226 13.2 µM | SF-268 1.55 µM | SF-295 15.1 µM | SK-MEL-28 13.5 µM | SK-MEL-2 18.8 µM | SNB-19 16.1 µM | UACC-62 10.8 µM

CC(C)(C)/N=C\N(C=C(c1ccccc1)c1ccccc1)C1CCCCC1
inactive: 786-0 82.4 µM | CAKI-1 50.6 µM | HCT-116 23.4 µM | HOP-62 > 100 µM | IGROV-1 50.9 µM | K562 17.7 µM | NCI-H23 40.3 µM | OVCAR-3 29.8 µM | SF-268 41.1 µM | SF-295 32 µM | SK-MEL-28 35 µM | SK-MEL-2 60.8 µM | SNB-19 > 100 µM | SNB-75 33.7 µM | UACC-62 44.1 µM

O=C1c2ccccc2C(=O)N1CC#CCO
inactive: 786-0 > 100 µM | CAKI-1 > 100 µM | HCT-116 > 100 µM | HOP-62 > 100 µM | K562 > 100 µM | NCI-H226 > 100 µM | NCI-H23 > 100 µM | NCI-H522 > 100 µM | OVCAR-3 > 100 µM | SF-268 > 100 µM | SF-295 > 100 µM | SK-MEL-28 > 100 µM | SK-MEL-2 > 100 µM | SNB-19 > 100 µM | UACC-62 > 100 µM

CCN(CC)CCC(=O)NC1c2ccccc2Oc2c(C)cccc21 (configuration not stated)
inactive: 786-0 > 100 µM | HCT-116 > 100 µM | HOP-62 > 100 µM | IGROV-1 > 100 µM | K562 > 100 µM | NCI-H226 > 100 µM | NCI-H23 > 100 µM | RPMI-8226 > 100 µM | SF-268 > 100 µM | SK-MEL-28 > 100 µM | SNB-19 > 100 µM | SNB-75 > 100 µM | UACC-62 > 100 µM

O=C1OCC/C1=N/O
inactive: 786-0 > 100 µM | HCT-116 > 100 µM | IGROV-1 > 100 µM | K562 > 100 µM | NCI-H226 > 100 µM | NCI-H23 > 100 µM | NCI-H522 > 100 µM | OVCAR-3 > 100 µM | RPMI-8226 > 100 µM | SF-268 > 100 µM | SF-295 > 100 µM | SK-MEL-28 > 100 µM | SK-MEL-2 > 100 µM | SNB-75 > 100 µM | UACC-62 > 100 µM

Source: ChEMBL document CHEMBL1201862, “PubChem BioAssay data set” (2004)
